Experiment [1] deals with T1, Thromboxansynthetase (Homo sapiens, UniProt P24557).
T1 construct: Aliquots der erhaltenen Plättchensuspension werden mit der Testsubstanz bzw; Lösungsmittel als Kontrolle 10 Minuten bei Raumtemperatur inkubiert; endogenous in cells; host or cells: gel-filtered human platelets from venous blood
T1 sequence (P24557 1-533): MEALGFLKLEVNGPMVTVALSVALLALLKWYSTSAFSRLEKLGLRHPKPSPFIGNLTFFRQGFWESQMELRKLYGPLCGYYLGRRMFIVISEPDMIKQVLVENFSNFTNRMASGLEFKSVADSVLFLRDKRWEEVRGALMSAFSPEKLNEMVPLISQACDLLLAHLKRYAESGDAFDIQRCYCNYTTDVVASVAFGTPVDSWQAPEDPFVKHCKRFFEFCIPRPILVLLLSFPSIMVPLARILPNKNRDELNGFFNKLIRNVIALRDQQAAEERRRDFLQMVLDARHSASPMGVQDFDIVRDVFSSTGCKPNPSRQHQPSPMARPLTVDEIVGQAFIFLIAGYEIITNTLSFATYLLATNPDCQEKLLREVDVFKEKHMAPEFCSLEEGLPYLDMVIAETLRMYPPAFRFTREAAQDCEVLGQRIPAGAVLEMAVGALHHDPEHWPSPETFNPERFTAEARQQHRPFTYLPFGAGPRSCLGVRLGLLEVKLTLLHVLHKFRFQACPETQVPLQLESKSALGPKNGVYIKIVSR
Kind of experiment: Inhibition of thromboxane synthetase (TXB2 formation from 14C-arachidonic acid in platelet suspension). It counts as cell-based. The following applies: 10 min preincubation at room temperature, read-out: Hemmung der Thromboxansynthetase IC₅₀. The protocol: 3. Bestimmung der Hemmwirkung auf die Thromboxansynthetase
Venöses Humanblut wird mit 13 mM Na3-Citrat antikoaguliert und 10 Minuten bei 170 x g zentrifugiert. Das überstehende plättchenreiche Plasma wird zur Entfernung der Plasmaproteine über eine Sepharose-2B-Säule gegeben. Aliquots der erhaltenen Plättchensuspension werden mit der Testsubstanz bzw. Lösungsmittel als Kontrolle 10 Minuten bei Raumtemperatur inkubiert und nach Zugabe 14C-markierter Arachidonsäure die Inkubation weitere 10 Minuten fortgesetzt. Nach Abstoppen mit 50 µl Zitronensäure wird 3 x mit 500 µl Essigester extrahiert und die vereinigten Extrakte mit Stickstoff abgeblasen. Der Rückstand wird in Essigester aufgenommen, auf DC-Folie aufgetragen und mit Chloroform:Methanol:Eisessig:Wasser (90:8:1:0,8, v/v/v/v) getrennt. Die getrockneten DC-Folien werden 3 Tage auf Röntgenfilm gelegt, die Autoradiogramme entwickelt und mit ihrer Hilfe die aktiven Zonen auf der Folie markiert. Nach Ausschneiden wird die Aktivität im Szintillationszähler bestimmt und die Hemmung der TXB2-Bildung berechnet. Die IC₅₀ wird durch lineare Interpolation bestimmt.

For experiment [2], the target named is T2, Thromboxan (Homo sapiens, UniProt P21731).
T2 construct: Aliquote der erhaltenen Plättchensuspension werden mit der Testsubstanz, dem Liganden (3H-markiert) und einem Marker (14C-markiert) 60 Minuten bei Raumtemperatur inkubiert; endogenous in cells; host or cells: gel-filtered human platelets from venous blood
T2 sequence (P21731 1-343): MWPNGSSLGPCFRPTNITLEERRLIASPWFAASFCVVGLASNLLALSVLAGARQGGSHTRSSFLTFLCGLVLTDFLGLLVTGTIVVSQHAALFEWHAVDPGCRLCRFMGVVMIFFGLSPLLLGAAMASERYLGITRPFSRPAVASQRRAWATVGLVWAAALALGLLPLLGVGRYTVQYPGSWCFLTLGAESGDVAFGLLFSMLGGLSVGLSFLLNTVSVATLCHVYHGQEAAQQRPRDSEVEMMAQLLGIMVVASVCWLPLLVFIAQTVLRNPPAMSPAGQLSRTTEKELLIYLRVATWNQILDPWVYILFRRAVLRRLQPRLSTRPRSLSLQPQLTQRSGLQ
In words: Thromboxane-antagonistic effect (displacement of 3H-labelled ligand from platelet suspension). The class given is binding. To be noted: 60 min at room temperature, read-out: Thromboxanantagonistische Wirkung IC₅₀. The protocol: 2. Thromboxanantagonistische Wirkung
Venöses Humanblut wird mit 13 mM Na3-Citrat antikoaguliert und 10 Minuten bei 170 x g zentrifugiert. Das überstehende plättchenreiche Plasma wird zur Entfernung der Plasmaproteine über eine Sepharose-2B-Säule gegeben. Aliquote der erhaltenen Plättchensuspension werden mit der Testsubstanz, dem Liganden (3H-markiert) und einem Marker (14C-markiert) 60 Minuten bei Raumtemperatur inkubiert und danach 20 Sekunden bei 10 000 x g abzentrifugiert. Der Überstand wird abgezogen und das Pellet in NaOH gelöst. Die 3H-Aktivität im Überstand entspricht dem freien Liganden, 14C ergibt die Konzentration des Markers. 3H im Pellet entspricht dem gebundenen Liganden, 14C wird zur Korrektur für Ligand im Extrazellulärraum verwendet. Aus den Bindungswerten für verschiedene Konzentrationen der Testsubstanz wird nach Iteration die Verdrängungskurve ermittelt und die IC₅₀ bestimmt.

In experiment [3] the test system is Thrombozytenaggregation. In words: Collagen-induced platelet aggregation (Born and Cross) in platelet-rich plasma. It counts as cell-based. The following applies: Homo sapiens; platelet-rich plasma of healthy subjects, 10 min preincubation at 37°C, 50% change of optical density; read-out: Hemmung der collagen-induzierten Aggregation EC₅₀. The text has this: 1. Antithrombotische Wirkung
Die Thrombozytenaggregation wird nach der Methode von Born und Cross (J. Physiol. 170, 397 (1964)) in plättchenreichem Plasma gesunder Versuchspersonen gemessen. Zur Gerinnungshemmung wird das Blut mit Natriumcitrat 3,14 % im Volumenverhältnis 1:10 versetzt.
Collagen-induzierte Aggregation
Der Verlauf der Abnahme der optischen Dichte der Plättchensuspension wird nach Zugabe der aggregationsauslösenden Substanz photometrisch gemessen und registriert. Aus dem Neigungswinkel der Dichtekurve wird auf die Aggregationsgeschwindigkeit geschlossen. Der Punkt der Kurve, bei dem die größte Lichtdurchlässigkeit vorliegt, dient zur Berechnung der "optical density".
Die Collagen-Menge wird möglichst gering gewählt, aber doch so, daß sich eine irreversibel verlaufende Reaktionskurve ergibt. Verwendet wird das handelsübliche Collagen der Firma Hormonchemie, München. Vor der Collagen-Zugabe wird das Plasma jeweils 10 Minuten mit der Substanz bei 37°C inkubiert.
Aus den erhaltenen Meßzahlen wird graphisch eine EC₅₀ bestimmt, die sich auf eine 50%ige Änderung der "optical density" im Sinne einer Aggregationshemmung bezieht.

Turning to `O=C(O)CCC/C=C(/c1cccnc1)c1cccc(NC(=O)CCc2ccc(Cl)cc2)c1` [B, 5E-6-[3-(3-(4-Chlorphenyl)-propionylamino)-phenyl]-6-(3-pyridyl)-hex-5-ensäure], the IC50 in experiment [1] was 0.004 µM; in experiment [2], 0.008 µM. In experiment [3], the EC50 was found to be 2.2 µM.

As to `CN(C(=S)Nc1ccc(Cl)cc1Cl)c1cccc(/C(=C\CCCC(=O)O)c2cccnc2)c1` [D, 5E-6-[3-(3-(2,4-Dichlorphenyl)-1-methylthioureido)-phenyl]-6-(3-pyridyl)-hex-5-ensäure], the IC50 in experiment [1] amounted to 0.09 µM; in experiment [2], 0.017 µM. In experiment [3], the EC50 was found to be 1.2 µM.

For the molecule `O=C(O)CCC/C=C(/c1cccnc1)c1cccc(NC(=S)Nc2ccc(Cl)cc2)c1` [C, 5E-6-[3-(3-(4-Chlorphenyl)-thioureido)-phenyl]-6-(3-pyridyl)-hex-5-ensäure], the IC50 in experiment [1] is 0.032 µM; in experiment [2], 0.012 µM. Moreover, the EC50 in experiment [3] came out at 0.8 µM.

For `O=C(O)CCCC=C(c1ccc(NC(=O)C2CC2c2ccc(Cl)cc2)cc1)c1cccnc1` (single isomer, unassigned; (-)) [A, (-)-5E-6-[4-(Z-2-(4-Chlorphenyl)-cyclopropyl-1-carboxamido)-phenyl]-6-(3-pyridyl)-hex-5-ensäure], the IC50 in experiment [1] and in experiment [2] was 0.004 µM in each case. In addition, the EC50 in experiment [3] worked out at 0.5 µM.

These data come from patent EP0487095B1, “Pyridyl derivatives, medicines containing these compounds and processes for their preparation” (Dr. Karl Thomae GmbH, priority 1990, dated 1992).
